Common to all, as to assay type: cell-based
Assay [1] concerns P. aeruginosa A-9843A. In words: In vitro MIC by tube dilution, P. aeruginosa A-9843A. Particulars: Pseudomonas aeruginosa, A9843A, read-out: MIC.
For assay [2], the system named is S. aureus A-9537. As to the kind of experiment: In vitro MIC by tube dilution, S. aureus A-9537. Particulars: Staphylococcus aureus, read-out: MIC.
For assay [3], the system named is S. aureus A-9606 (Pen-res.). As to the kind of experiment: In vitro MIC by tube dilution, S. aureus A-9606 (Pen-res.). Particulars: Staphylococcus aureus, read-out: MIC.
Assay [4] concerns H. influenzae A21518. In words: In vitro MIC by tube dilution, H. influenzae A21518. Particulars: Haemophilus influenzae.
For assay [5], the system named is S. pneumoniae A-9585. In words: In vitro MIC by tube dilution, S. pneumoniae A-9585. Particulars: Streptococcus pneumoniae, A9585, S. pneumoniae A-9585; read-out: MIC.
Assay [6] deals with H. influenzae A-9833. As to the kind of experiment: In vitro MIC by tube dilution, H. influenzae A-9833. Particulars: Haemophilus influenzae, A9833.
Assay [7] concerns S. pyogenes A9604. As to the kind of experiment: In vitro MIC by tube dilution, S. pyogenes A9604. Particulars: Streptococcus pyogenes, A9604, S. pyogenes A-9604; read-out: MIC.
Assay [8] relates to E. coli A20341-1. In words: In vitro MIC by tube dilution, E. coli A20341-1. Particulars: Escherichia coli, A203411, read-out: MIC.
For assay [9], the system named is P. mirabilis A-9900. In words: In vitro MIC by tube dilution, P. mirabilis A-9900. Particulars: Proteus mirabilis, A9900, P. mirabilis A-9900; read-out: MIC.
For assay [10], the system named is E. cloacae A-9659. As to the kind of experiment: In vitro MIC by tube dilution, E. cloacae A-9659. Particulars: Enterobacter cloacae, read-out: MIC.
For assay [11], the system named is P. morganii A15153. In words: In vitro MIC by tube dilution, P. morganii (M. morganii) A15153. Particulars: Morganella morganii, read-out: MIC.
The test system of assay [12] is S. marcescens A20019. In words: In vitro MIC by tube dilution, S. marcescens A20019. Particulars: Serratia marcescens, read-out: MIC.
The test system of assay [13] is P. aeruginosa A21213. In words: In vitro MIC by tube dilution, P. aeruginosa A21213. Particulars: Pseudomonas aeruginosa, A21213, P. aeruginosa A21213; read-out: MIC.
Assay [14] has as its system S. faecalis A20688. In words: In vitro MIC by tube dilution, S. faecalis A20688. Particulars: Enterococcus faecalis, A20688, S. faecalis A20688; read-out: MIC.
The test system of assay [15] is E. coli A15119. In words: In vitro MIC by tube dilution, E. coli A15119. Particulars: Escherichia coli; E. coli A15119; read-out: MIC.
The test system of assay [16] is P. rettgeri A22424. In words: In vitro MIC by tube dilution, P. rettgeri A22424. Particulars: Providencia rettgeri, A22424, P. rettgeri A22424; read-out: MIC.
For assay [17], the system named is K. pneumoniae A20468. As to the kind of experiment: In vitro MIC by tube dilution, K. pneumoniae A20468. Particulars: Klebsiella pneumoniae, read-out: MIC.
The subject of assay [18] is E. cloacae A-9656. As to the kind of experiment: In vitro MIC by tube dilution, E. cloacae A-9656. Particulars: Enterobacter cloacae, A9656, E. cloacae A-9656; read-out: MIC.
Assay [19] has as its system K. pneumoniae A-9664. In words: In vitro MIC by tube dilution, K. pneumoniae A-9664. Particulars: Klebsiella pneumoniae, A9664, read-out: MIC.
Assay [20] has as its system S. aureus A15097 (Meth-res.). As to the kind of experiment: In vitro MIC by tube dilution, S. aureus A15097 (Meth-res.). Particulars: Staphylococcus aureus; S. aureus A15097 (Meth-res.), overnight 37° C.
Where [21] appears, read: A9537, S. aureus A-9537, no serum.

The structures appear in SMILES notation. Values after ≈ are worked out from the molar mass of the structure shown. Like-named read-outs stand apart in the source and are kept apart here.

With `CCC[n+]1ccc(CSC2=C(C(=O)[O-])N3C(=O)[C@H]([C@@H](C)O)[C@H]3C2)cc1` [Example 6, 3-(1-Propylpyridine-4-yl-methanethio)-6α-[1-(R)-hydroethyl]-7-oxo-1-azabicyclo(3.2.0)hept-2-ene-2-carboxylate], the MIC is 8 µg/mL (≈ 22.1 µM) in assay [1] (P. aeruginosa A-9843a); 0.03 µg/mL (≈ 0.0828 µM) in [2] (setting [21]); 0.03 µg/mL (≈ 0.0828 µM) in [3] (S. aureus A-9606 (Pen-res)); more than 32 µg/mL in assay [4]; 0.004 µg/mL (≈ 0.011 µM) in [5]; more than 32 µg/mL in assay [6]. The MIC in [7] is 0.004 µg/mL (≈ 0.011 µM).
As to `C[C@@H](O)[C@H]1C(=O)N2C(C(=O)[O-])=C(SCc3n(C)cc[n+]3C)C[C@H]12` [Example 9, 3-(N,N'-Dimethylimidazole-2-yl-methanethio)-6α-[1-(R)-hydroxyethyl]-7-oxo-1-azabicyclo(3.2.0)hept-2-ene-2-carboxylate], the MIC in [8] is 0.004 µg/mL (≈ 0.0119 µM); in [9] it was 0.016 µg/mL (≈ 0.0474 µM); in [10] (A9659, E. cloacae A-9659), 0.03 µg/mL (≈ 0.0889 µM); in assay [1] (P. aeruginosa A-9843a) it was 2 µg/mL (≈ 5.93 µM); in assay [11] (M. morganii A15153), 0.03 µg/mL (≈ 0.0889 µM); in [12], 0.016 µg/mL (≈ 0.0474 µM). Also, the MIC is 0.004 µg/mL (≈ 0.0119 µM) in [2] (setting [21]); 0.13 µg/mL (≈ 0.385 µM) in assay [13]; 0.13 µg/mL (≈ 0.385 µM) in assay [14]; 0.008 µg/mL (≈ 0.0237 µM) in assay [15]; 0.06 µg/mL (≈ 0.178 µM) in assay [16]; 0.03 µg/mL (≈ 0.0889 µM) in [17] (K. pneumoniae A20468). Besides, the MIC turned out to be 0.03 µg/mL (≈ 0.0889 µM) in assay [18] and 0.016 µg/mL (≈ 0.0474 µM) in assay [19].
In the case of `C[C@@H](O)[C@H]1C(=O)N2C(C(=O)[O-])=C(SCc3n(C)nc[n+]3C)C[C@H]12` [Example 19, 3-[5-(1,4-Dimethyl-1,2,4-triazolium)methanethio]-6α-[1-(R)-hydroxyethyl]-7-oxo-1-azabicyclo[3.2.0]hept-2-ene-2-carboxylate], the MIC in assay [8] stood at 0.008 µg/mL (≈ 0.0236 µM); in [9] it was 0.03 µg/mL (≈ 0.0887 µM); in [10] (A9659, E. cloacae A-9659), 0.03 µg/mL (≈ 0.0887 µM); in assay [11] (A15153, M. morganii A15153), 0.06 µg/mL (≈ 0.177 µM); in [12], 0.03 µg/mL (≈ 0.0887 µM); in assay [2] (setting [21]), 0.004 µg/mL (≈ 0.0118 µM). The MIC amounted to 0.016 µg/mL (≈ 0.0473 µM) in [3] (S. aureus A-9606 (Pen-res)); 0.06 µg/mL (≈ 0.177 µM) in assay [13]; 0.002 µg/mL (≈ 0.00591 µM) in [5]; 0.008 µg/mL (≈ 0.0236 µM) in assay [15]; 0.13 µg/mL (≈ 0.384 µM) in assay [16]; 0.06 µg/mL (≈ 0.177 µM) in [17] (A20468, K. pneumoniae A20468). Moreover, the MIC in assay [18] was found to be 0.03 µg/mL (≈ 0.0887 µM); in assay [19] it was 0.03 µg/mL (≈ 0.0887 µM); in assay [7] it was 0.002 µg/mL (≈ 0.00591 µM).
Regarding `C[C@@H](O)[C@H]1C(=O)N2C(C(=O)[O-])=C(SCCc3cc[n+](C)cc3)C[C@H]12` [Example 2], the MIC in assay [20] was determined as 8 µg/mL (≈ 23 µM); in assay [9], 0.03 µg/mL (≈ 0.0861 µM); in assay [10] (A9659, E. cloacae A9659), 0.13 µg/mL (≈ 0.373 µM); in assay [1] (P. aeruginosa A-9843A), 8 µg/mL (≈ 23 µM); in assay [11] (A15153, P. morganii A15153), 0.06 µg/mL (≈ 0.172 µM); in assay [12], 0.03 µg/mL (≈ 0.0861 µM). In addition, the MIC worked out at 0.016 µg/mL in assay [2] (A9537, S. aureus A-9537 + 50% serum, overnight 37° C.); 0.004 µg/mL (≈ 0.0115 µM) in [2] (A9537, S. aureus A-9537, no serum, overnight 37° C.); 0.008 µg/mL (≈ 0.023 µM) in [3] (S. aureus A-9606 (Pen-res.), overnight 37° C.); 0.13 µg/mL (≈ 0.373 µM) in assay [16]; 0.13 µg/mL (≈ 0.373 µM) in assay [17] (A20468, K. pneumoniae A20468); 0.06 µg/mL (≈ 0.172 µM) in [19].

The values above are taken from US4746736A, “Carbapenem antibiotics” (priority 1986, dated 1988).
